These are literature values, as cited in US20250268985A1, “BCL2 INHIBITOR AND PEPTIDE COMBINATION THERAPY FOR TREATING PROLIFERATIVE DISEASES” (IMMUNE SYSTEM KEY LTD., priority 2022, published 2025).

Turning to `CN(C)CC[C@H](CSc1ccccc1)Nc1ccc(S(=O)(=O)NC(=O)c2ccc(N3CCN(Cc4ccccc4-c4ccc(Cl)cc4)CC3)cc2)cc1[N+](=O)[O-]` [ABT-737, 4-{4-[(4′-Chloro[1,1′-biphenyl]-2-yl)methyl]piperazin-1-yl}-N-(4-{[(2R)-4-(dimethylamino)-1-(phenylsulfanyl)butan-2-yl]ami-no}-3-nitrobenzene-1-sulfonyl)benzamide], the “bioavailability after oral administration” value was “not bioavailable”.
